Among the data in PubChem BioAssay (NCI) are TGI and GI50 values, retold here.

Common to all, as to assay: inhibition of tumour cell growth, NCI panel, 48 h
For assay [1], the system named is HL-60(TB) leukemia.
For assay [2], the system named is HT29 colon.
In assay [3] the test system is M14 melanoma.
Assay [4] has as its system MALME-3M melanoma.
The test system of assay [5] is NCI/ADR-RES ovarian.
Assay [6] deals with OVCAR-5 ovarian.
Assay [7] deals with OVCAR-8 ovarian.
Assay [8] has as its system RXF 393 renal.
For assay [9], the system named is SK-MEL-28 melanoma.
Assay [10] has as its system SK-MEL-5 melanoma.

Molecules are shown by their SMILES. Several values for one entry are separate records, joined by “and”; a condition that tells them apart may be missing. Equal values may be shown once.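 Five compound concentrations were applied to cells in 96-well plates for 48 hours; endpoints were derived by simple linear interpolation of the resulting dose-response curve. At the GI50, growth is halved. TGI is the concentration that stops growth completely.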

With `OC1CC2CCC(C1)N2CCCN1c2ccccc2Sc2ccc(Cl)cc21` (stereo not given), the TGI in assay [1] turned out to be 6.37 µM; in [2] it was 3.63 µM; in assay [3], 3.56 µM; in assay [4], 3.59 µM; in assay [5] it was 6.32 µM; in assay [6], 8.01 µM. Also, the TGI in [7] turned out to be 4.86 µM; in assay [8], 4.04 µM; in assay [9], 3.69 µM; in [10], 3.13 µM.

As for `COc1ccc2cc(-c3cnc4nonc4n3)ccc2c1`, the GI50 in assay [1] was 0.803 µM; in [2], 2.97 µM; in assay [3], 1.91 µM; in assay [4], 4.03 µM; in assay [5] it was 1.32 µM; in assay [6] it was 6 µM. Further, the GI50 in [7] is 2.54 µM; in assay [8] it was 1.26 µM; in [9], > 100 µM; in [10], 1.24 µM. Besides, the TGI in assay [1] was 9.03 µM; in [2], > 100 µM; in assay [3], 6.38 µM; in assay [4], > 100 µM; in [5], > 100 µM; in [6], > 100 µM. For the same compound, the TGI is > 100 µM in assay [7], 7.31 µM in assay [8], > 100 µM in assay [9] and 8.5 µM in [10].

As to `COc1cnc2c(c1)C(=O)c1c-2n(CCCN2CCCC2)c(=O)c2cc([N+](=O)[O-])ccc12`, the GI50 in [1] was 0.0299 µM; in assay [2], 0.0202 µM; in assay [3], < 0.01 µM; in [4] it was 0.0558 µM; in assay [5], 0.026 µM; in [6], 0.163 µM. For the same compound, the GI50 in assay [7] is 0.0929 µM; in assay [8], 0.0611 µM; in assay [9] it was 10.6 µM; in [10], 0.0671 µM. Besides, the TGI is 1.06 µM in assay [1]; 1.37 µM in [2]; 1.01 µM in assay [3]; 1.15 µM in assay [4]; 1.31 µM in [5]; 1.52 µM in [6]. For the same compound, the TGI came to 5.85 µM in [7], 0.533 µM in assay [8], 27.9 µM in assay [9] and 0.322 µM in assay [10].

Regarding `COc1ccc(Br)cc1NC(=O)Nc1cccc2c1ccn2Cc1ccnc(N)c1`, the GI50 was 4.69 µM and 3.6 µM in assay [1]; 2.59 µM and 2.24 µM in [2]; 3.09 µM and 2.68 µM in assay [3]; 12.1 µM and > 10 µM in assay [4]; 6.08 µM and > 10 µM in assay [5]; 12.7 µM and > 10 µM in assay [6]. Besides, the GI50 was 5.94 µM and > 10 µM in assay [7]; 4.6 µM and 9.23 µM in assay [8]; 11.5 µM and > 10 µM in [9]; 10.2 µM and 5.28 µM in [10]. Besides, the TGI in assay [1] is 20.8 µM and > 10 µM; in assay [2], 8.09 µM and > 10 µM; in assay [3] it was 10.5 µM and > 10 µM; in [4], 32 µM and > 10 µM; in assay [5] it was 60.3 µM and > 10 µM; in assay [6], 58.4 µM and > 10 µM. The TGI in [7] was 23.3 µM and > 10 µM; in [8] it was 16.1 µM and > 10 µM; in assay [9], 24.8 µM and > 10 µM; in assay [10] it was 23 µM and > 10 µM.

As to `COc1cc2nc(Nc3cccc(Cl)c3)nc(N)c2cc1OC`, the GI50 is 10.7 µM in assay [1]; 3.23 µM in assay [2]; 1.87 µM in [3]; 2.47 µM in [4]; 7.61 µM in assay [5]; 17.2 µM in assay [6]. Also, the GI50 in assay [7] was 6.29 µM; in assay [8], 16.9 µM; in [9], 1.93 µM; in assay [10], 3.27 µM. For the same compound, the TGI is 39.4 µM in assay [1]; 12.4 µM in assay [2]; 3.73 µM in [3]; 6.62 µM in assay [4]; 33.9 µM in [5]; 35.4 µM in assay [6]. The TGI in [7] worked out at 22.6 µM; in assay [8] it was 31.3 µM; in [9], 3.78 µM; in [10], 11.2 µM.

`CCOC(=O)c1[nH]c2cc(Cl)ccc2c1[C@@H](C(=O)NC(C)(C)C)N(CC)C(=O)CCCCC#Cc1cccc2c1CN(C1CCC(=O)NC1=O)C2=O` (stereo not given in full): the GI50 was < 0.01 µM in assay [1]; 2.13 µM in [2]; 0.213 µM in assay [3]; < 0.01 µM in assay [4]; 1.19 µM in assay [5]; 2.08 µM in assay [6]. Further, the GI50 was < 0.01 µM in [7], 0.113 µM in [8], 2.29 µM in assay [9] and 1.22 µM in assay [10]. Also, the TGI in [1] was 0.0959 µM; in assay [2], > 100 µM; in assay [3] it was 17.7 µM; in assay [4] it was 0.456 µM; in assay [5], > 100 µM; in assay [6] it was 40.2 µM. Further, the TGI stood at 35 µM in assay [7], 3.91 µM in assay [8], 25.5 µM in assay [9] and 2.56 µM in assay [10].

With `COc1nc(N)nc2c1ncn2C1CC(O)C(CO)O1` (stereo not given), the TGI in assay [1], in assay [2], in [3], in [4], in assay [5] and in assay [6] was > 100 µM throughout. The TGI in [7], in assay [8], in assay [9] and in [10] was > 100 µM in each case.
